Laboratory results from US10968169B2, “Urea derivative” (Daiichi Sankyo Company, Limited, priority 2016, dated 2021).

Each molecule was assayed against tryptophanase of Bacteroides thetaiotamicron (Bacteroides thetaiotaomicron, UniProt Q8A7N2) (assay: Tryptophanase enzyme inhibitory activity (LDH-coupled NADH loss)). Conditions: L-tryptophan 10 mM, 37° C., absorbance at 340 nm; read-out: Bacteroides Activity of Inhibiting Tryptophanase (IC50).
Assay type: biochemical
Experimental: Tryptophanase inhibitory activity was evaluated by a method using lactate dehydrogenase (LDH). The reaction time-dependent reduction in NADH conjugated with the enzymatic reaction, with LDH, of pyruvic acid produced through the enzymatic reaction of L-tryptophan as a substrate with tryptophanase, was measured with a spectrophotometer (Phillips-R S et al., Biochemistry, 23, 6228-6234 (1984)). Enzyme inhibitory activity obtained without adding a test compound (by adding DMSO alone) in the presence of tryptophanase was used as a control. As the enzyme, tryptophanase of Bacteroides thetaiotamicron (Genbank accession number: HC914434.1) was used. A test compound solution was prepared by dissolving each test compound in DMSO in an arbitrary concentration (from 30 mM to 30 nM at 10-fold common ratio). LDH, NADH and L-tryptophan were prepared, using distilled water, respectively to concentrations of 80 units/mL, 10 mM and […]. Bacteroides tryptophanase was prepared to 30 mg/mL. A potassium phosphate buffer was used as the buffer. [table] A reaction solution A was dispensed at 284.8 μL per well into a 96-well plate, and the test compound solution was added at 3.2 μL per well to obtain a final concentration of 1/100 (reaction solution B). The reaction solution B was incubated at 37° C. for 30 minutes, L-tryptophan was added thereto at 32 μL per well to obtain a final concentration of 10 mM (reaction solution C), and the enzyme reaction was performed at 37° C. over 30 minutes with absorbance at 340 nm measured for monitoring the NADH loss. Based on the NADH loss, the tryptophanase inhibitory activity of the compound was evaluated. Besides, the following compounds were similarly tested instead of the test compound.

tryptophanase of Bacteroides thetaiotamicron, sequence (Q8A7N2 entry or part of it, change not shown): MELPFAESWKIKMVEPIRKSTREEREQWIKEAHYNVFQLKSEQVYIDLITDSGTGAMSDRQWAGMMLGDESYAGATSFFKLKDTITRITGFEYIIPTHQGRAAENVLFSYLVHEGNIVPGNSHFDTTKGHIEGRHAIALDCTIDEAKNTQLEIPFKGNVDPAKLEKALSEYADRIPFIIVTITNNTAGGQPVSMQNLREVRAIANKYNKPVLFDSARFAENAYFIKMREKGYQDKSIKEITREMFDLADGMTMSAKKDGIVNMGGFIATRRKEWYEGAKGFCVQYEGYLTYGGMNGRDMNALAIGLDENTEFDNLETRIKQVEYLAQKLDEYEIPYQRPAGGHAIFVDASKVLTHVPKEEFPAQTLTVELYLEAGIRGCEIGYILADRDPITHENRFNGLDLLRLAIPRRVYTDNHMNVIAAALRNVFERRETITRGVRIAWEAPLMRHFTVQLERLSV

| SMILES | IC50 |
| --- | --- |
| CCC(NC(=O)Nc1ccc(F)cc1)(C(=O)O)C1CC1 (centres unmarked) [Example 23, 2-Cyclopropyl-2-{[(4-fluorophenyl)carbamoyl]amino}butanoic acid] | 5.2 µM |
| N#Cc1cccc(NC(=O)NC(C(=O)O)(C2CC2)C2CC2)c1 [Example 34, {[(3-Cyanophenyl)carbamoyl]amino}(dicyclopropyl)acetic acid] | 1.8 µM |
| O=C(Nc1ccc(OC(F)F)cc1)NC(C(=O)O)(C1CC1)C1CC1 [Example 10, Dicyclopropyl({[4-(difluoromethoxy)phenyl]carbamoyl}amino)acetic acid] | 1.9 µM |
| CC[C@@](C)(NC(=O)Nc1ccc(OC(F)F)c(Cl)c1)C(=O)O [Example 18, N-{[3-Chloro-4-(difluoromethoxy)phenyl]carbamoyl}-D-isovaline] | 5.3 µM |
| CC[C@@](C)(NC(=O)Nc1ccc(CC(F)(F)F)cc1)C(=O)O [Example 13, N-{[4-(2,2,2-Trifluoroethyl)phenyl]carbamoyl}-D-isovaline] | 6.7 µM |
| CC(C)CC(C)(NC(=O)Nc1ccc(OC(F)(F)F)cc1)C(=O)O (centres unmarked) [Example 3, 2-Methyl-N-{[4-(trifluoromethoxy)phenyl]carbamoyl}leucine] | 8.7 µM |
| CC(NC(=O)Nc1ccc(OC(F)(F)F)cc1)(C(=O)O)C1CC1 (centres unmarked) [Example 2, 2-Cyclopropyl-2-({[4-(trifluoromethoxy)phenyl]carbamoyl}amino)propanoic acid] | 20.3 µM |
| CC[C@@](C)(NC(=O)Nc1ccc(OC(F)(F)F)c(C#N)c1)C(=O)O [Example 19, N-{[3-Cyano-4-(trifluoromethoxy)phenyl]carbamoyl}-D-isovaline] | 35.6 µM |
| O=C(Nc1ccccc1)NC(C(=O)O)(C1CC1)C1CC1 [Example 21, Dicyclopropyl[(phenylcarbamoyl)amino]acetic acid] | 5 µM |
| CCC(CC)(NC(=O)Nc1ccc(OC(F)F)cc1F)C(=O)O [Example 16, 2-({[4-(Difluoromethoxy)-2-fluorophenyl]carbamoyl}amino)-2-ethylbutanoic acid] | 4.2 µM |
| CCC(CC)(NC(=O)Nc1ccc(Cl)c(C#N)c1)C(=O)O [Example 37, 2-{[(4-Chloro-3-cyanophenyl)carbamoyl]amino}-2-ethylbutanoic acid] | 25 µM |
| CC[C@@](C)(NC(=O)Nc1ccc(OC(F)F)cc1F)C(=O)O [Example 17, N-{[4-(Difluoromethoxy)-2-fluorophenyl]carbamoyl}-D-isovaline] | 12.3 µM |
| CCC(CC)(NC(=O)Nc1ccc(C2(C#N)CC2)cc1)C(=O)O [Example 39, 2-({[4-(1-Cyanocyclopropyl)phenyl]carbamoyl}amino)-2-ethylbutanoic acid] | 5.2 µM |
| CC[C@@](C)(NC(=O)Nc1cccc(F)c1)C(=O)O [Example 24, N-[(3-Fluorophenyl)carbamoyl]-D-isovaline] | 33.2 µM |
| CCC(CC)(NC(=O)Nc1ccc(Cl)s1)C(=O)O [Example 28, 2-{[(5-Chlorothiophen-2-yl)carbamoyl]amino}-2-ethylbutanoic acid] | 3.2 µM |
| CCC(CC)(NC(=O)Nc1ccc(C(C)C#N)cc1)C(=O)O (centres unmarked) [Example 40, 2-({[4-(1-Cyanoethyl)phenyl]carbamoyl}amino)-2-ethylbutanoic acid] | 5.8 µM |
| CCC(NC(=O)Nc1ccc(OC(F)F)cc1)(C(=O)O)C1CC1 (centres unmarked) [Example 11, 2-Cyclopropyl-2-({[4-(difluoromethoxy)phenyl]carbamoyl}amino)butanoic acid] | 0.6 µM |
| N#Cc1ccc(NC(=O)NC(C(=O)O)(C2CC2)C2CC2)cc1 [Example 35, {[(4-Cyanophenyl)carbamoyl]amino}(dicyclopropyl)acetic acid] | 10.9 µM |
| CC[C@@](C)(NC(=O)Nc1cccc(Cl)c1)C(=O)O [Example 26, N-[(3-Chlorophenyl)carbamoyl]-D-isovaline] | 13.2 µM |
| O=C(Nc1ccc(OC(F)(F)F)cc1)NC(C(=O)O)(C1CC1)C1CC1 [Example 5, Dicyclopropyl({[4-(trifluoromethoxy)phenyl]carbamoyl}amino)acetic acid] | 1.7 µM |
